The compounds below were run against T1, soluble epoxide hydrolase (sEH) (Homo sapiens, UniProt P34913) (assay: in vitro biochemical activity test, sEH enzyme inhibition with EET substrate (LC-MS)). Conditions: 90 min pre-incubation at room temperature, 60 min reaction.
T1 sequence (P34913 1-555): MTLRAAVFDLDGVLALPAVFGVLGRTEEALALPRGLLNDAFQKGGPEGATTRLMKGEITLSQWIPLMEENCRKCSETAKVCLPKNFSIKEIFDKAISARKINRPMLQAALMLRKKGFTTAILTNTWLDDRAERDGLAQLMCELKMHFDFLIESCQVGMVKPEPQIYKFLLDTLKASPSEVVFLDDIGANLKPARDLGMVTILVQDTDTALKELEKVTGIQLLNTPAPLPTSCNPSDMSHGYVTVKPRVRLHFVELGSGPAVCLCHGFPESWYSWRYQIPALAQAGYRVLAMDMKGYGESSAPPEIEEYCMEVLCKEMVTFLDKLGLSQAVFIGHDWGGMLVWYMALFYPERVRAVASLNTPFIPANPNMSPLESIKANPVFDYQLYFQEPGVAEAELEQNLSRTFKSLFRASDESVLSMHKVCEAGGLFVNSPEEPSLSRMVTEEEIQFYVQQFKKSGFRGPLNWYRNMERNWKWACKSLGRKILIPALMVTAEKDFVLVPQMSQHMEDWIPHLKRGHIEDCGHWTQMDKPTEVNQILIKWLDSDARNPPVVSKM
Procedure: This example relates to the relationship between the structure and activity of (hetero)aryl imidazole compounds containing an aromatic substituent. Specifically, the biochemical activity of the (hetero)aryl imidazole compounds containing an aromatic substituent described in Example 1 as sEH enzyme inhibitors was evaluated by in vitro activity test experiments.
The experimental procedures for evaluating in vitro biochemical activity were described below.
The substrate used in the evaluation experiment was epoxyeicosatrienoic acid (EET). The solutions used in the evaluation experiments were Bis/Tris HCl 25 mM pH 7.0, Bis/Tris HCl 25 mM pH 7.0 containing 0.1 mg/mL BSA was used as buffer A, and Bis/Tris HCl 25 mM pH 7.0 containing 36.3 mM ZnSO4 was used as buffer B.
The specific steps of the evaluation experiment were as follows. 79 μL of buffer A was added to each well in a black 96-well plate and then 1 μL solution of the aromatic substituent-containing (hetero)aryl imidazole compound was added. Then, 10 μL sEH (1 μM) buffer A solution was added to the wells. After pre-incubation at room temperature for 90 min, 10 μL EET (10 μM) buffer A solution was added to trigger the reaction. After the mixture was allowed to react […] for 60 min, 15 μL buffer B and 180 μL acetonitrile were added to quench the reaction, followed by high-speed centrifugation and filtration for later use.
LC-MS was used to detect the concentration of EET in the samples. The final IC50 was calculated based on three independent experiments using Graphpad Prism software.

| SMILES | IC50 [nM] |
| --- | --- |
| Cc1nc(N)ncc1-c1cc2nc(-c3ccc(S(=O)(=O)N(C)C)cc3)[nH]c2c(Cl)c1F [Compound 35, 4-(6-(2-amino-4-methylpyr-imid-5-yl)-4-chloro-5-fluoro-1H-benzo[d]imidazol-2-yl)-N,N-dimethylbenzenesulfon-amide] | 0.045 |
| Cc1cc(F)ncc1-c1cc2nc(-c3ccc(S(N)(=O)=O)cc3)[nH]c2cc1F [Compound 36, 4-(5-fluoro-6-(6-fluoro-4-methylpyridin-3-yl)-1H-benzo [d]imidazol-2-l)benzenesulfon-amide] | 0.54 |
| CNS(=O)(=O)c1ccc(-c2nc3cc(-c4cnc(F)cc4C)c(F)cc3[nH]2)cc1 [Compound 37, 4-(5-fluoro-6-(6-fluoro-4-methylpyridin-3-yl)-1H-benzo [d]imidazol-2-yl)-N-methyl-benzenesulfonamide] | 0.38 |
| CN(C)S(=O)(=O)c1ccc(-c2nc3cc(-c4ccnn4C(C)(C)F)c(F)cc3[nH]2)cc1 [Compound 38, 4-(5-fluoro-6-(1-(2-fluoropro-pan-2-yl)-1H-pyrazol-5-yl)-1H-benzo[d]imidazol-2-yl)-N,N-dimethylbenzenesulfon-amide] | 0.045 |
| COc1cc(C)c(-c2cc3nc(-c4ccc(S(=O)(=O)N(C)C)cc4)[nH]c3cc2F)cn1 [Compound 39, 4-(5-fluoro-6-(6-methoxy-4-methylpyridin-3-yl)-1H-benzo [d]imidazol-2-yl)-N,N-dimeth-ylbenzenesulfonamide] | 0.088 |
| CN(C)S(=O)(=O)c1ccc(-c2nc3cc(-c4cnc(N)cc4Cl)c(F)cc3[nH]2)cc1 [Compound 40, 4-(6-(6-amino-4-chloropyr-idin-3-yl)-5-fluoro-1H-benzo [d]imidazol-2-yl)-N,N-dimeth-ylbenzenesuIfonamide] | 0.063 |
| Cc1[nH]c(=O)ccc1-c1cc2nc(-c3ccc(S(=O)(=O)N(C)C)cc3)[nH]c2cc1F [Compound 41, 4-(5-fluoro-6-(2-methyl-6-oxo-1,6-dihydropyridin-3-yl)-1H-benzo[d]imidazol-2-yl)-N,N-dimethylbenzenesulfon-amide] | 0.23 |
| Cc1nc(N)ncc1-c1cc2[nH]c(-c3ccc(C(F)(F)F)cc3)nc2cc1F [Compound 42, 5-(5-fluoro-2-(4-(trifluoro-methyl)phenyl)-1H-benzo[d]imidazol-6-yl)-4-methylpyrim-idine-2-amine] | 0.14 |
| Cc1nc(N)ncc1-c1cc2[nH]c(-c3ccc(C(F)F)cc3)nc2c(F)c1F [Compound 44, 5-(2-(4-(difluoromethyl)phen-yl)-4,5-difluoro-1H-benzo[d]imidazol-6-yl)-4-methylpyr-imidine-2-amine] | 0.096 |
| Cc1cc(N)ncc1-c1cc2[nH]c(-c3ccc(S(=O)(=O)N(C)C)cc3)nc2c(F)c1F [Compound 45, 4-(6-(6-amino-4-methylpyr-idin-3-yl)-4,5-difluoro-1H-benzo[d]imidazol-2-yl)-N,N-dimethylbenzenesulfonamide] | 0.033 |
| Nc1ncc(-c2cc3[nH]c(-c4ccc(C(F)F)cc4)nc3c(F)c2F)c(C(F)F)n1 [Compound 46, 4-(difluoromethyl)-5-(2-(4-(difluoromethyl)phenyl)-4,5-difluoro-1H-benzo[d]imid-azol-6-yl)pyrimidine-2-amine] | 0.042 |
| CC(C)c1ncncc1-c1cc2[nH]c(-c3ccc(S(=O)(=O)N(C)C)cc3)nc2cc1F [Compound 47, 4-(5-fluoro-6-(4-isopropyl-pyrimid-5-yl)-1H-benzo[d]imidazol-2-yl)-N,N-dimethyl-benzenesulfonamide] | 0.036 |
| CN(C)S(=O)(=O)c1ccc(-c2nc3cc(F)c(-c4cnc(N)nc4C(F)F)cc3[nH]2)cc1 [Compound 51, 4-(6-(4-(difluoromethyl)-2-aminopyrimid-5-yl)-5-fluoro-1H-benzo[d]imidazol-2-yl)-N,N-dimethylbenzenesulfon-amide] | 0.016 |
| Cc1ccncc1-c1cc2[nH]c(-c3ccc(S(=O)(=O)N(C)C)cc3)nc2cc1F [Compound 55, 4-(6-(4-methylpyridin-3-yl)-5-fluoro-1H-benzo[d]imidazol-2-yl)-N,N-dimethylbenzene-sulfonamide] | 0.1 |
| CN(C)S(=O)(=O)c1ccc(-c2nc3c(F)c(F)c(-c4cnc(N)cc4Cl)cc3[nH]2)cc1 [Compound 57, 4-(6-(6-amino-4-chloropyri-din-3-yl)-4,5-difluoro-1H-benzo[d]imidazol-2-yl)-N,N-dimethylbenzenesulfonamide] | 0.036 |
| CC(C)n1nc(N)cc1-c1cc2[nH]c(-c3ccc(S(=O)(=O)N(C)C)cc3)nc2cc1F [Compound 60, 4-(6-(1-isopropyl-3-amino-1H-pyrazol-5-yl)-5-fluoro-1H-benzo[d]imidazol-2-yl)-N,N-dimethylbenzenesulfonamide] | 0.057 |
| Nc1ncc(-c2cc3[nH]c(-c4ccc(C(F)(F)F)cc4)nc3c(F)c2F)c(C(F)F)n1 [Compound 68, 5-(2-(4-(trifluoromethyl)phen-yl)-4,5-difluoro-1H-benzo[d]-imidazol-6-yl)-4-(difluoro-methyl)pyrimidine-2-amine] | 0.089 |
| CC(C)n1ccnc1-c1cc2[nH]c(-c3ccc(C(F)(F)F)cc3)nc2c(F)c1F [Compound 72, 2-(4-(trifluoromethyl)phenyl)-6-(1-isopropyl-1H-imidazol-2-yl)-4,5-difluoro-1H-benzo[d] imidazole] | 0.77 |
| Fc1c(-c2cnc(N3CCOCC3)nc2C(F)F)cc2[nH]c(-c3ccc(C(F)(F)F)cc3)nc2c1F [Compound 74] | 0.17 |
| Fc1c(-c2ccnn2C2CC2)cc2[nH]c(-c3ccc(C(F)(F)F)cc3)nc2c1F [Compound 75, 2-(4-(trifluoromethyl)phenyl)-6-(1-cyclopropyl-1H-pyrazol-5-yl)-4,5-difluoro-1H-benzo [d]imidazole] | 0.081 |
| Cc1nn(C(F)F)cc1-c1cc2[nH]c(-c3ccc(C(F)(F)F)cc3)nc2c(F)c1F [Compound 76, 2-(4-(trifluoromethyl)phenyl)-6-(3-methyl-1-(difluorometh-yl)-1H-pyrazol-4-yl)-4,5-difluoro-1H-benzo[d]imidazole] | 0.081 |
| Nc1cc(C(F)F)c(-c2cc3[nH]c(-c4ccc(C(F)(F)F)cc4)nc3c(F)c2F)cn1 [Compound 77, 2-(4-(trifluoromethyl)phenyl)-6-(4-(difluoromethyl)-6-amino-pyridin-3-yl)-4,5-difluoro-1H-benzo[d]imidazole] | 0.047 |
| Nc1ncc(-c2cc3[nH]c(-c4ccc(F)c(C(F)(F)F)c4)nc3c(F)c2F)c(C(F)F)n1 [Compound 81, 5-(2-(3-(trifluoromethyl)-4-fluorophenyl)-4,5-difluoro-1H-benzo[d]imidazol-6-yl)-4-(difluoromethyl)pyrimidine-2-amine] | 0.15 |

Each compound was assayed against T1, soluble epoxide hydrolase (sEH) (assay: PHOME assay activity test, sEH enzyme inhibition (fluorescence)). Conditions: PHOME 5 μM, pH 7.0; 10 min pre-incubation; test compound concentration range 20 nM-0.082 nM.
Format: biochemical
Procedure: This example relates to the relationship between the structure and activity of (hetero)aryl imidazole compounds containing an aromatic substituent. Specifically, the biochemical activity of the (hetero)aryl imidazole compounds containing an aromatic substituent described herein as sEH enzyme inhibitors was evaluated by PHOME assay activity test experiment. The synthesis of the substrates and the test methods required for this test were all based on known literature reports (Analytical Biochemistry 2005, 343, 66-75).
The sEH enzyme activity inhibition experiment was performed in a low binding 96-well plate. The reaction system was 100 μL 25 mM Bis-Tris, pH 7.0, 0.1 mg/mL BSA buffer. The experimental steps of PHOME assay activity test were as follows.
First, a sEH enzyme solution with a final concentration of […] was mixed with compounds of different concentrations (test compound concentration range 20 nM-0.082 nM), and then pre-incubated on a shaker at room temperature for 10 min. The reaction was triggered by adding Phome fluorescent substrate at a final concentration of 5 μM and immediately placed in a Perkin Elmer microplate reader for dynamic monitoring for 1 hour at an excitation wavelength of 330 nm and an emission wavelength of 465 nm, with fluorescence readings at intervals of 1 minute. Graphpad Prism 9.0 software was used to calculate the slope of the fluorescence value increase in each well within 20 minutes, and the slope was used to calibrate the enzyme activity to calculate the inhibition rate of the compound on sEH enzyme activity under different concentration conditions. Finally, Graphpad Prism 9 was used to plot and calculate IC50 values.
The inhibitory activity IC50 values of some compounds against soluble epoxide hydrolase obtained by PHOME assay activity evaluation experiment are shown in Table 4.

| SMILES | IC50 [nM] |
| --- | --- |
| COCCNc1ncc(-c2cc3[nH]c(-c4ccc(C(F)(F)F)cc4)nc3c(F)c2F)c(C(F)F)n1 [Compound 88, 5-(2-(4-(trifluoromethyl)phen-yl)-4,5-difluoro-1H-benzo[d]imidazol-6-yl)-4-(difluoro-methyl)-N-(2-methoxyethyl)-pyrimidine-2-amine] | 0.65 |

From patent publication US20260297065A1, “AROMATIC SUBSTITUENT-CONTAINING (HETERO) ARYL-IMIDAZOLE COMPOUND, AND PREPARATION METHOD THEREFOR AND USE THEREOF” (OPEN SOURCE THERAPEUTICS, priority 2022, published 2026)
